Values quoted from earlier work as cited in patent US11439578B2, “Agent for dyeing hair, containing at least one organic silicon compound, a coloring compound and a film-forming, hydrophilic polymer” (Henkel AG & Co. KGaA, priority 2018, dated 2022).

Settings: about 25° C.

| solubility in water (in words) | SMILES | solubility in water |
| --- | --- | --- |
| highly soluble in water | O=C([O-])C1=NN(c2ccc(S(=O)(=O)[O-])cc2)C(=O)C1N=Nc1ccc(S(=O)(=O)[O-])cc1.[Na+].[Na+].[Na+] (centres unmarked) [Acid Yellow 23, trisodium salt of 4,5-dihydro-5-oxo-1-(4-sulfophenyl)-4-((4-sulfophenyl)azo)-1H-pyrazole-3-carboxylic acid] |  |
|  | Nc1cc(S(=O)(=O)[O-])cc2cc(S(=O)(=O)[O-])c(N=Nc3ccccc3)c(O)c12.[Na+].[Na+] [Acid Red 33, disodium salt of 5-amino-4-hydroxy-3-(phenylazo)-naphthalene-2,7-disulphonate] | about 2.5 g/L |
|  | O=C([O-])c1c(Cl)c(Cl)c(Cl)c(Cl)c1-c1c2c(Br)cc(=O)c(Br)c-2oc2c(Br)c(O)cc(Br)c12.O=C([O-])c1c(Cl)c(Cl)c(Cl)c(Cl)c1-c1c2c(Br)cc(=O)c(Br)c-2oc2c(Br)c(O)cc(Br)c12.[Na+].[Na+] [Acid Red 92, disodium salt of 3,4,5,6-tetrachloro-2-(1,4,5,8-tetrabromo-6-hydroxy-3-oxoxanthen-9-yl)benzoic acid] | greater than 10 g/L |
|  | O=S(=O)([O-])c1ccc(N=Nc2c(O)ccc3ccccc23)cc1.[Na+] [Acid Orange 7, sodium salt of 4-[(2-hydroxy-1-naphthyl)azo]benzene sulphonate] | more than 7 g/L |
|  | CCN(Cc1cccc(S(=O)(=O)[O-])c1)c1ccc(C(=C2C=CC(=[N+](CC)Cc3cccc(S(=O)(=O)[O-])c3)C=C2)c2ccccc2S(=O)(=O)[O-])cc1.[Na+].[Na+] [Acid Blue 9] | more than 20 % by weight |
